In US20160122320A1, “USEFUL COMBINATIONS OF MONOBACTAM ANTIBIOTICS WITH BETA-LACTAMASE INHIBITORS” (Basilea Pharmaceutica AG, priority 2005, published 2016):

What was measured:
Assay in all cases: MIC, NCCLS broth microdilution
Format in all cases: cell-based
[1] = system: Enterobacter aerogenes Zayakosky; details: Enterobacter aerogenes Zayakosky; + compound 323 and sulbactam, 4 mg/L each
[2] = system: Enterobacter aerogenes B1
[3] = system: Acinetobacter sp. J2; details: Acinetobacter baumannii J2
[4] = system: Pseudomonas aeruginosa MK1184; details: with 102 and sulbactam
[5] = system: Pseudomonas aeruginosa 1973E
Method in brief: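 Broth microdilution following NCCLS M7-A5, with final DMSO ≤1%. Plates were incubated overnight at 30° C. or 37° C. and growth was read by eye; MIC is the lowest concentration giving complete inhibition of visible growth. In combination tests the formula I compound was serially diluted while partner compounds were held at 4 μg/mL each.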

[6] = system: Klebsiella pneumoniae CF104
[7] = system: Serratia marcescens S6
[8] = system: Stenotrophomonas malthophilia 1AC736; details: Stenotrophomonas maltophilia 1AC736

C[C@H]1[C@H](NC(=O)/C(=N\OC(C)(C)C(=O)O)c2csc(N)n2)C(=O)N1S(=O)(=O)O [Aztreonam, aztreonam, reference compound]
Minimal Inhibitory Concentration of antibiotic at fixed inhibitor concentration of 4 mg/L [1]: 8 mg/L | Minimal Inhibitory Concentration of antibiotic at fixed inhibitor concentration of 4 mg/L ([2]; + compound 206 4 mg/L): 8 mg/L | Minimal Inhibitory Concentration of antibiotic at fixed inhibitor concentration of 4 mg/L ([2]; + compound 323 and sulbactam, 4 mg/L each): 8 mg/L | MIC of antibiotic at fixed inhibitor concentration of 4 mg/L ([3]; with 102 and clavulanate): 16 µg/mL | MIC of antibiotic at fixed inhibitor concentration of 4 mg/L ([3]; with 102 and sulbactam): 4 µg/mL | MIC of antibiotic at fixed inhibitor concentration of 4 mg/L [4]: 16 µg/mL | MIC of antibiotic ([5]; antibiotic alone, no inhibitor): 8 µg/mL | MIC of antibiotic at fixed inhibitor concentration of 4 mg/L ([5]; with 102 and clavulanate): 8 µg/mL | MIC of antibiotic at fixed inhibitor concentration of 4 mg/L ([5]; with 102 and sulbactam): 4 µg/mL | MIC of antibiotic at fixed inhibitor concentration of 4 mg/L ([6]; with 102 and clavulanate): 0.5 µg/mL | MIC of antibiotic at fixed inhibitor concentration of 4 mg/L ([6]; with 102 and sulbactam): 1 µg/mL | MIC of antibiotic at fixed inhibitor concentration of 4 mg/L ([7]; with 102 and clavulanate): 2 µg/mL | MIC of antibiotic at fixed inhibitor concentration of 4 mg/L ([7]; with 102 and sulbactam): 2 µg/mL | MIC of antibiotic at fixed inhibitor concentration of 4 mg/L ([8]; with 102 and clavulanate): 4 µg/mL | MIC of antibiotic at fixed inhibitor concentration of 4 mg/L ([8]; with 102 and sulbactam): 8 µg/mL
